{"source": "patent US9353157B2", "about": "(priority 2007, dated 2016)", "key": {"[1]": {"test_system": "influenza A/PR/8/34 (H1N1)", "assay": "Inhibition of influenza virus-induced hemagglutination, A/PR/8/34", "assay_type": "cell-based", "settings": "for concentration inhibiting influenza virus-induced hemagglutination: optimal numbers of red blood cells and concentrations of virus", "method": "Studies have been conducted with various influenza strains to better understand the mechanism of action of the peptides of the invention, e.g., to determine which step in the viral replication cycle is inhibited by F3, F1, and related influenza virus inhibitory peptides. At optimal numbers of red blood cells and concentrations of influenza A/PR/8/34 (H1N1), both F3 and F1 inhibited influenza virus-induced hemagglutination at about 10 μM concentrations."}, "influenza A/Cal/07/04": {"test_system": "influenza A/Cal/07/04", "set-up": "species or system ferret", "settings": "in vivo; for ferrets with significant respiratory distress, high fever, sneezing / signs of influenza: 0.3 mg/kg"}, "influenza A virus": {"test_system": "influenza A virus", "assay": "Plaque reduction / virus infectivity assays, influenza A virus (strain not specified)", "assay_type": "cell-based", "settings": "for IC50: normal-sized plaques, read-out: potency in virus infectivity assays, normal-sized plaques", "method": "(§1) Using an immunoplaque assay with AVICEL® microcrystalline cellulose as the overlay (Matrosovich et al., 2006), plaques are detected by fixing the monolayers and staining with a specific antibody to the influenza virus nucleoprotein. In the peptide inhibition assay, peptide is preincubated with about 100 plaque forming units (pfu) of the virus for approximately 1 hour, then used to infect the monolayers. Two conditions were used for the incubation: (1) standard condition in which the peptide is included in the overlay at the same concentration that was used in the preincubation step, or (2) a condition in which the peptide is not included in the overlay.\n(§2) F3 was evaluated for inhibition of multiple subtypes of influenza A viruses utilizing Madin-Darby Canine Kidney (“MDCK”) cell plaque assays performed using the A/WSN/33 (H1N1) and A/Udorn/72 (H3N2) subtypes of influenza A virus. Dilutions of 50 μM to 2.5 μM of F3 and the randomly scrambled control peptide (SEQ ID NO: 14) were used to evaluate the effects of these peptides on viral infectivity. Six dilutions of F3 and of the control peptide were tested against the H1N1 viral subtype; and another six dilutions of each peptide were tested against the H3N2 viral subtype."}, "[2]": {"test_system": "H3N2 influenza A/Cal/07/04", "set-up": "species or system ferret", "settings": "in vivo; for ferrets with significant/severe respiratory distress (high fever, sneezing): 0.3 mg/kg"}, "H1N1 influenza A virus": {"test_system": "H1N1 influenza A virus", "assay": "MDCK cell immunoplaque / plaque reduction assay, H1N1", "assay_type": "cell-based", "settings": "H1 influenza A virus subtype", "method": "as §1, §2\n(§3) At low nM concentrations (<10 nM) for condition (1), or low μM ([…]) for condition (2), the presence of “mini-plaques” were apparent."}, "H3N2 influenza A virus": {"test_system": "H3N2 influenza A virus", "assay": "MDCK cell immunoplaque / plaque reduction assay, H3N2", "assay_type": "cell-based", "settings": "H3 influenza A virus subtype", "method": "as §1, §2, §3"}, "[3]": {"test_system": "influenza B (B/Shanghai/361/2002)"}, "[4]": {"test_system": "recombinant H5N1 influenza virus"}, "[5]": {"test_system": "influenza B (B/Shanghai/10/2003)"}}, "note": "Several values for one entry are separate records, joined by “and”; a condition that tells them apart may be missing. Equal values may be shown once. Ends that are not written are not given here.", "data": [{"substance": "SWLVNKIYLTDDEVEL (Scrambled version of residues 84-99 of influenza A/H3 HA2) [scrambled control peptide, reference compound]", "values": [{"measurement": "inhibition of hemagglutination", "setting": "[1]; at any concentration", "result": "did not inhibit"}, {"measurement": "lung presentation (gross pathology)", "setting": "influenza A/Cal/07/04", "result": "evidence of inflammation"}, {"measurement": "tissue pathology (histopathology)", "setting": "influenza A/Cal/07/04", "result": "infiltrations, bronchial inflammation, with bronchial exudates"}, {"measurement": "ferrets with significant respiratory distress, high fever, sneezing / signs of influenza", "setting": "influenza A/Cal/07/04", "result": "all 12"}, {"measurement": "anti-viral properties", "setting": "influenza A virus", "result": "no discernable anti-viral properties"}, {"measurement": "inhibition of influenza A virus plaque formation", "setting": "influenza A virus; under any condition (peptide in overlay or not)", "result": "did not inhibit"}, {"measurement": "ferrets displaying significant nasal discharge", "setting": "[2]", "result": 100, "unit": "%"}, {"measurement": "ferrets presenting with lethargy", "setting": "[2]", "result": 50, "unit": "%"}, {"measurement": "ferrets with significant/severe respiratory distress (high fever, sneezing)", "setting": "[2]", "result": "all"}]}, {"substance": "VDDGFLDIWTYNAELLVLL [F1]", "values": [{"measurement": "concentration inhibiting influenza virus-induced hemagglutination", "setting": "[1]", "result": "about 10 μM"}, {"measurement": "antiviral activity in plaque assays", "setting": "H1N1 influenza A virus", "result": "potent (picomolar)"}, {"measurement": "IC50", "setting": "influenza A virus", "result": "~0.2", "unit": "nM"}, {"measurement": "antiviral activity in plaque assays", "setting": "H3N2 influenza A virus", "result": "potent (picomolar)"}]}, {"substance": "VEDTKIDLWSYNAELL-NH2 [F3]", "values": [{"measurement": "concentration inhibiting influenza virus-induced hemagglutination", "setting": "[1]", "result": "about 10 μM"}, {"measurement": "IC50", "setting": "[3]", "result": "< 5", "unit": "nM"}, {"measurement": "animals that developed mild signs of influenza", "setting": "influenza A/Cal/07/04", "result": "two"}, {"measurement": "lung presentation (gross pathology)", "setting": "influenza A/Cal/07/04", "result": "normal lung presentations"}, {"measurement": "pathological responses (respiratory distress, nasal discharge, activity), FIG. 6", "setting": "influenza A/Cal/07/04", "result": "significantly reduced pathological responses"}, {"measurement": "reduction of peak titers of influenza virus in nasal washes", "setting": "influenza A/Cal/07/04", "result": "greater than 2.0 log10"}, {"measurement": "reduction of peak titers of influenza virus in the lungs", "setting": "influenza A/Cal/07/04", "result": "greater than 6.0 log10"}, {"measurement": "spread of the virus to the lower respiratory tract and to other organs", "setting": "influenza A/Cal/07/04", "result": "effectively blocked"}, {"measurement": "tissue pathology (histopathology)", "setting": "influenza A/Cal/07/04", "result": "markedly reduced pathology"}, {"measurement": "ferrets with significant respiratory distress, high fever, sneezing / signs of influenza", "setting": "influenza A/Cal/07/04", "result": "none"}, {"measurement": "anti-viral properties", "setting": "influenza A virus", "result": "potent anti-viral properties"}, {"measurement": "inhibition in plaque reduction assays", "setting": "influenza A virus", "result": "picomolar inhibition"}, {"measurement": "concentration at which mini-plaques were apparent", "setting": "influenza A virus; condition (1): peptide included in the overlay", "result": "< 10", "unit": "nM"}, {"measurement": "IC50", "setting": "influenza A virus", "result": "~0.2", "unit": "nM"}, {"measurement": "clinical signs of influenza", "setting": "[2]", "result": "no clinical signs of influenza"}, {"measurement": "ferrets with very mild respiratory signs with slight fever", "setting": "[2]", "result": "2/5 and 1/6"}, {"measurement": "ferrets with significant/severe respiratory distress (high fever, sneezing)", "setting": "[2]", "result": "none"}, {"measurement": "IC50", "setting": "[4]", "result": "< 5", "unit": "nM"}, {"measurement": "IC50", "setting": "[5]", "result": "< 5", "unit": "nM"}]}]}
